Experimental data: US7951798B2, “Polymorphs of olanzapine hydrochloride” (Egis Hyogyszergyar Nyrt., priority 2003, dated 2011)

Experiment: solubility in water (analytical studies)
Format: physicochemical
Details: compared with the new polymorphic hydrochloride salts

Question: Which solubility in water does the source give for Cc1cc2c(s1)Nc1ccccc1N=C2N1CCN(C)CC1 [olanzapine base, 2-methyl-4-(4-methylpiperazin-1-yl)-10H-thieno-[2,3-b][1,5]-benzodiazepine] here?
Answer: The solubility in water was “significantly lower”.
